From patent publication US7273863B1, “Benzophenones as inhibitors of reverse transcriptase” (SmithKline Beecham Corporation, priority 1999, dated 2007)

Experiments:
Assay type in all cases: cell-based
[1] = tested on: isogenic HIV-1 RT mutant virus E138K; assay: HeLa cell assay (HIV-LTR β-galactosidase reporter); details: Human immunodeficiency virus 1, HeLa, read-out: IC50 (nM) Range
Summary of the method: (§1)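 HeLa-CD4-LTR-β-gal cells, seeded overnight, were infected with isogenic recombinant HXB2 RT-mutant virus (50 to 70 total RLUs per well, DEAE-dextran) for 1.5 to 2 hours. Five-fold compound titrations (2 μM to 1 pM final, 0.1% DMSO) followed, with 72 h at 37° C. IC50 is chemiluminescent β-gal signal inhibition versus untreated controls.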

[2] = tested on: isogenic HIV-1 RT mutant virus K103N/L1001; assay: HeLa cell assay (HIV-LTR β-galactosidase reporter); details: Human immunodeficiency virus 1, HeLa, read-out: IC50 (nM) Range
Summary of the method: as §1

[3] = tested on: isogenic HIV-1 RT mutant virus G190E; assay: HeLa cell assay (HIV-LTR β-galactosidase reporter); details: Human immunodeficiency virus 1, HeLa, read-out: IC50 (nM) Range
Summary of the method: as §1

[4] = tested on: isogenic HIV-1 RT mutant virus K101E; assay: HeLa cell assay (HIV-LTR β-galactosidase reporter); details: Human immunodeficiency virus 1, HeLa, read-out: IC50 (nM) Range
Summary of the method: as §1

HIV-2 = assay: MT4 cell assay, antiviral HIV activity (propidium iodide); details: Human immunodeficiency virus 2, Virus Type HIV-2, read-out: IC50 (nM) Range

SMILES	IC50 [1] [nM]	IC50 [2] [nM]	IC50 [3] [nM]	IC50 [4] [nM]	IC50 (HIV-2) [nM]
Cc1cc(S(N)(=O)=O)ccc1NC(=O)COc1ccc(Cl)cc1C(=O)c1cccc(C#N)c1 [Compound 448]	< 10	< 10	< 10	< 10	1000 to 3000
Cc1cc(S(N)(=O)=O)ccc1NC(=O)COc1ccc(Cl)cc1C(=O)c1cc(F)cc(C(F)(F)F)c1 [Compound 78]	< 10	< 10	< 10	< 10	–
Cc1cc2cn[nH]c2cc1NC(=O)COc1ccc(Cl)cc1C(=O)c1cccc(C#N)c1 [Compound 453]	–	–	–	< 10	–
Cc1cc2nc[nH]c2cc1NC(=O)COc1ccc(Cl)cc1C(=O)c1cc(F)cc(C(F)(F)F)c1 [Compound 239]	< 10	< 10	< 10	< 10	–
Cc1cc(OCCCS(N)(=O)=O)ccc1NC(=O)COc1ccc(Cl)cc1C(=O)c1cc(F)cc(C(F)(F)F)c1 [Compound 257]	< 10	< 10	< 10	< 10	–
Cc1cc(S(N)(=O)=O)ccc1NC(=O)COc1ccc(Cl)cc1C(=O)c1cc(F)cc(F)c1 [Compound 62]	< 10	< 10	< 10	< 10	1000 to 3000
